Patent US20150105252A1, “SUBSTITUTED PYRAZOLES AS HERBICIDES” (E I DU PONT DE NEMOURS AND COMPANY, priority 2013, published 2015)

Legend:
[1] = tested on: barnyardgrass; assay: Test A preemergence; format: in vivo, Echinochloa crus-galli; settings: preemergence
Outline: (§1)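 Ratings express plant response from 0 (no effect) to 100 (complete control), judged visually against untreated controls after approximately 10 days in the greenhouse. Preemergence applications were made as directed soil sprays onto seeded loam–sand mix, and postemergence applications onto 2–10 cm plants at one- to two-leaf stage.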

[2] = tested on: crabgrass, large; assay: Test A preemergence; format: in vivo, Digitaria sanguinalis; settings: preemergence; for Crabgrass, Large plant response rating (0 to 100 scale): 125 g ai/ha, visual injury approx. 10 days after treatment; for Crabgrass, Large plant response rating: 500 g ai/ha, visual injury after approx. 10 days, 0 to 100 scale (0 no effect, 100 complete control)
Outline: as §1

[3] = tested on: foxtail, giant; assay: Test A preemergence; format: in vivo, Setaria faberii; settings: preemergence; for Foxtail, Giant plant response rating (0 to 100 scale): 125 g ai/ha, visual injury approx. 10 days after treatment; for Foxtail, Giant plant response rating: 500 g ai/ha, visual injury after approx. 10 days, 0 to 100 scale (0 no effect, 100 complete control)
Outline: as §1

[4] = tested on: morningglory; assay: Test A preemergence; format: in vivo, Ipomoea spp.; settings: preemergence; for Morningglory plant response rating (0 to 100 scale): 125 g ai/ha, visual injury approx. 10 days after treatment; for Morningglory plant response rating: 500 g ai/ha, visual injury after approx. 10 days, 0 to 100 scale (0 no effect, 100 complete control)
Outline: as §1

[5] = tested on: pigweed; assay: Test A preemergence; format: in vivo, Amaranthus retroflexus; settings: preemergence; for Pigweed plant response rating (0 to 100 scale): 125 g ai/ha, visual injury approx. 10 days after treatment; for Pigweed plant response rating: 500 g ai/ha, visual injury after approx. 10 days, 0 to 100 scale (0 no effect, 100 complete control)
Outline: as §1

[6] = tested on: velvetleaf; assay: Test A preemergence; format: in vivo, Abutilon theophrasti; settings: preemergence; for Velvetleaf plant response rating (0 to 100 scale): 125 g ai/ha, visual injury approx. 10 days after treatment; for Velvetleaf plant response rating: 500 g ai/ha, visual injury after approx. 10 days, 0 to 100 scale (0 no effect, 100 complete control)
Outline: as §1

[7] = tested on: wheat; assay: Test A preemergence; format: in vivo, Triticum aestivum; settings: preemergence; for Wheat plant response rating (0 to 100 scale): 125 g ai/ha, visual injury approx. 10 days after treatment; for Wheat plant response rating: 500 g ai/ha, visual injury after approx. 10 days, 0 to 100 scale (0 no effect, 100 complete control)
Outline: as §1

[8] = tested on: corn; assay: Test A preemergence; format: in vivo, Zea mays; settings: preemergence; for Corn plant response rating (0 to 100 scale): 125 g ai/ha, visual injury approx. 10 days after treatment; for Corn plant response rating: 500 g ai/ha, visual injury after approx. 10 days, 0 to 100 scale (0 no effect, 100 complete control)
Outline: as §1

[9] = tested on: barnyardgrass; assay: Test A postemergence; format: in vivo, Echinochloa crus-galli
Outline: as §1

[10] = tested on: crabgrass, large; assay: Test A postemergence; format: in vivo, Digitaria sanguinalis
Outline: as §1

[11] = tested on: foxtail, giant; assay: Test A postemergence; format: in vivo, Setaria faberii
Outline: as §1

[12] = tested on: morningglory; assay: Test A postemergence; format: in vivo, Ipomoea spp.
Outline: as §1

[13] = tested on: pigweed; assay: Test A postemergence; format: in vivo, Amaranthus retroflexus
Outline: as §1

[14] = tested on: velvetleaf; assay: Test A postemergence; format: in vivo, Abutilon theophrasti
Outline: as §1

[15] = tested on: wheat; assay: Test A postemergence; format: in vivo, Triticum aestivum
Outline: as §1

[16] = tested on: corn; assay: Test A postemergence; format: in vivo, Zea mays
Outline: as §1

[17] = tested on: rice; assay: Test B flood; format: in vivo, Oryza sativa; settings: 250 g ai/ha, visual rating on 0 to 100 scale (0 no effect, 100 complete control), 13 to 15 days
Outline: (§2)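 Paddy-water application: seedlings at 2-leaf stage, flood depth 3 cm maintained for the test duration. Evaluation after 13–15 days in the greenhouse by eye relative to controls; 0–100 scale.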

[18] = tested on: sedge, umbrella; assay: Test B flood; format: in vivo, Cyperus difformis; settings: 250 g ai/ha, visual rating on 0 to 100 scale (0 no effect, 100 complete control), 13 to 15 days
Outline: as §2

[19] = tested on: ducksalad; assay: Test B flood; format: in vivo, Heteranthera limosa; settings: 250 g ai/ha, visual rating on 0 to 100 scale (0 no effect, 100 complete control), 13 to 15 days
Outline: as §2

[20] = tested on: barnyardgrass; assay: Test B flood; format: in vivo, Echinochloa crus-galli; settings: 250 g ai/ha, visual rating on 0 to 100 scale (0 no effect, 100 complete control), 13 to 15 days
Outline: as §2

[21] = 125 g ai/ha, visual injury, 0 to 100 scale, approx. 10 days
[22] = 500 g ai/ha, visual injury after approx. 10 days, 0 to 100 scale (0 no effect, 100 complete control)
[23] = Postemergence, 500 g ai/ha, 0 to 100 scale (0 no effect, 100 complete control)
[24] = postemergence, 125 g ai/ha, about 10 days, visual rating on 0 to 100 scale (0 no effect, 100 complete control)
[25] = Postemergence, 125 g ai/ha, 0 to 100 scale, 0 no effect, 100 complete control

Compound | Barnyardgrass plant response rating [1, 22] | Crabgrass, Large plant response rating (0 to 100 scale) [2] | Crabgrass, Large plant response rating [2] | Foxtail, Giant plant response rating (0 to 100 scale) [3] | Foxtail, Giant plant response rating [3] | Morningglory plant response rating (0 to 100 scale) [4] | Pigweed plant response rating (0 to 100 scale) [5] | Velvetleaf plant response rating (0 to 100 scale) [6] | Wheat plant response rating (0 to 100 scale) [7] | Corn plant response rating (0 to 100 scale) [8] | Corn plant response rating [8] | Barnyardgrass plant response rating [9, 23] | Crabgrass, Large plant response rating [10, 23] | Foxtail, Giant plant response rating [11, 23] | Morningglory plant response rating [12, 23] | Pigweed plant response rating [13, 23] | Velvetleaf plant response rating [14, 23] | Wheat plant response rating [15, 23] | Corn plant response rating [16, 23] | Plant response rating, Rice [17] | further results
CCCCc1cc(C(=O)NOCC)nn1Cc1ccnc(C(F)(F)F)c1 [Compound 152] | 60 | 40 | 80 | 10 | 60 | 0 | 100 | 0 | 0 | 0 | 0 | 50 | 60 | 40 | 60 | 80 | 60 | 0 | 30 | 0 | Barnyardgrass plant response rating [1, 21]: 0; Morningglory plant response rating [4]: 20; Pigweed plant response rating [5]: 100; Velvetleaf plant response rating [6]: 20; Wheat plant response rating [7]: 0; Barnyardgrass plant response rating [9, 24]: 10; Crabgrass, Large plant response rating [10, 24]: 10; Foxtail, Giant plant response rating [11, 24]: 10; Morningglory plant response rating [12, 24]: 40; Pigweed plant response rating [13, 24]: 60; Velvetleaf plant response rating [14, 24]: 20; Wheat plant response rating [15, 24]: 0; Corn plant response rating [16, 24]: 10; Plant response rating, Sedge, Umbrella [18]: 0; Plant response rating, Ducksalad [19]: 0; Plant response rating, Barnyardgrass [20]: 0
COCc1cc(C(=O)NC2CC2)nn1Cc1ccnc(C(F)(F)F)c1 [Compound 167] | 100 | 80 | 100 | 90 | 100 | 50 | 100 | 30 | 0 | 0 | 40 | 80 | 80 | 90 | 100 | 100 | 60 | 30 | 70 | 20 | Barnyardgrass plant response rating [1, 21]: 30; Morningglory plant response rating [4]: 100; Pigweed plant response rating [5]: 100; Velvetleaf plant response rating [6]: 100; Wheat plant response rating [7]: 50; Barnyardgrass plant response rating [9, 24]: 20; Crabgrass, Large plant response rating [10, 24]: 20; Foxtail, Giant plant response rating [11, 24]: 40; Morningglory plant response rating [12, 24]: 80; Pigweed plant response rating [13, 24]: 70; Velvetleaf plant response rating [14, 24]: 30; Wheat plant response rating [15, 24]: 0; Corn plant response rating [16, 24]: 10; Plant response rating, Sedge, Umbrella [18]: 70; Plant response rating, Ducksalad [19]: 80; Plant response rating, Barnyardgrass [20]: 20
CCc1cc(C(=O)NCC#N)nn1Cc1ccnc(C(F)(F)F)c1 [Compound 147] | 30 | 50 | 100 | 10 | 80 | 20 | 90 | 0 | 0 | 0 | 0 | 30 | 40 | 30 | 70 | 90 | 50 | 0 | 10 | 0 | Barnyardgrass plant response rating [1, 21]: 0; Morningglory plant response rating [4]: 70; Pigweed plant response rating [5]: 100; Velvetleaf plant response rating [6]: 30; Wheat plant response rating [7]: 0; Barnyardgrass plant response rating [9, 24]: 10; Crabgrass, Large plant response rating [10, 24]: 10; Foxtail, Giant plant response rating [11, 24]: 10; Morningglory plant response rating [12, 24]: 30; Pigweed plant response rating [13, 24]: 60; Velvetleaf plant response rating [14, 24]: 30; Wheat plant response rating [15, 24]: 0; Corn plant response rating [16, 24]: 0; Plant response rating, Sedge, Umbrella [18]: 0; Plant response rating, Ducksalad [19]: 0; Plant response rating, Barnyardgrass [20]: 0
COCc1cc(C(=O)NCC(F)(F)F)nn1Cc1cc(C(F)(F)C(F)(F)F)nn1C [Compound 225] | 80 | 20 | 90 | 20 | 70 | 30 | 20 | 0 | 0 | 0 | 20 | 30 | 70 | 60 | 60 | 0 | 30 | 0 | 30 | 0 | Barnyardgrass plant response rating (0 to 100 scale, 0 is no effect, 100 is complete control) ([1]; 125 g ai/ha, visual injury approx. 10 days after treatment): 10; Barnyardgrass plant response rating [9, 25]: 10; Crabgrass, Large plant response rating [10, 25]: 40; Foxtail, Giant plant response rating [11, 25]: 10; Morningglory plant response rating [12, 25]: 10; Pigweed plant response rating [13, 25]: 0; Velvetleaf plant response rating [14, 25]: 20; Wheat plant response rating [15, 25]: 0; Corn plant response rating [16, 25]: 10; Plant response rating, Sedge, Umbrella [18]: 50; Plant response rating, Ducksalad [19]: 55; Plant response rating, Barnyardgrass [20]: 0
